Test results reported in publication PMC9684503 (Communications Biology, 2022).
“And” between values parts separate entries of the source, which are not always exact repeats. Identical values can stand only once. Counter-ions that a name gives are not always drawn. Like-named read-outs stand apart in the source and are kept apart here.

Tests used:
rat VMAT2-His = target: T1, rat VMAT2-His (Rattus norvegicus, UniProt Q01827); experiment: Differential scanning fluorimetry (DSF) with CPM dye: change of melting temperature of purified VMAT2; type: binding
T1 construct: The ORF of rat VMAT2 was subcloned into a pFastBac vector; His; made in house; host or cells: Sf9 insect cells (baculovirus)
Method: To screen purified VMAT2 by DSF we expressed the rat VMAT2 protein, as VMAT2-His, in SF9 insect cells using the baculovirus expression system. The transporter was solubilized and purified in n-Dodecyl-β-D-maltoside (DDM)/cholesterol hemisuccinate (CHS) micelles by immobilized metal affinity chromatography (IMAC) and size exclusion chromatography (SEC). […] Screening was performed using DSF and the thiol-reactive dye 7-diethylamino-3-(4-maleimidophenyl)-4-methylcoumarin (CPM), an approach that monitors changes to the protein melting temperature (Tm) upon compound binding. Using CPM or other dyes, DSF-based assays have successfully been used in molecular-based screenings[34],[35]. […] DSF screening was performed in 384 well plates using the thiol-sensing dye 7-diethylamino-3-(4-maleimidophenyl)-4-methylcoumarin (CPM) (Merck). […] Protein melting curves were determined using a LightCycler 480 ii RT-PCR system (Roche), with a temperature ramp increasing from 25 to 95 °C at a rate of 2 °C/min. Data analysis was performed using an in-house software that automatically determines the protein midpoint melting temperature (Tm) based on the second derivative of the melting curves or using the HTSDSF explorer as described in ref. [58]. […] 6 μl of this mix was dispensed to each well of 384 well plates using a Multidrop™ Combi Reagent Dispenser (Thermo Scientific). […] All initial hits were then subjected to an initial validation in triplicates with a compound concentration of 200 μM and a ΔTm > 5× the standard deviation (SD) cut off. […] Processing of the data from the primary screening and the concentration-dependent validation was performed as reported.

rat VMAT2 = rat VMAT2 (Rattus norvegicus, UniProt Q01827); experiment: FFN206 uptake assay in transfected Hek293 cells
VMAT2 [1] = target: T2, VMAT2 (Rattus norvegicus, UniProt Q01827); details: 50 µM
Method: (§1) We preincubated cells expressing VMAT2 with 50 μM compounds and measured [^3H]-DTBZ binding (5 nM) to the sample (Fig. 3a). […] Hek293 cells were grown and transfected with pcDNA3.1 VMAT2-His as described above. Two days after transfection, cells were harvested, washed and transferred to 96 well MultiScreen FB filter plates (Millipore). […] Cells were washed 3 times with ice cold PBS and 50 µl Ultima Gold LLL (PerkinElmer) was added to each well. […] After a 20 min incubation at 37 °C, cells were washed and [^3H] scintillation counting was performed as described above.

VMAT2 [2] = target: T2, VMAT2; experiment: [3H]-DTBZ competition assay in Hek293 cells expressing VMAT2; details: 50 μM compound;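 further: HEK293 cells transfected with VMAT2, pretreated 30 min with compound, then given 5 nM [3H]-DTBZ for 20 min at 37 °C, bound label read by scintillation counting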
Method: as §1

[3] = Table 1, DSF screening, mean ± SD of triplicates
[4] = Table S2 dose response, compound 0,12 µM, read-out: ΔTm
[5] = Table S2 dose response, compound 0,37 µM, read-out: ΔTm
[6] = Table S2 dose response, compound 10 µM, read-out: ΔTm
[7] = Table S2 dose response, compound 30 µM, read-out: ΔTm
[8] = Table S2 dose response, compound 90 µM, read-out: ΔTm
[9] = Table S2 dose response, compound 270 µM, read-out: ΔTm
[10] = Table S2 dose response, compound 1,11 µM, read-out: ΔTm
[11] = Table S2 dose response, compound 3,33 µM, read-out: ΔTm
[12] = Table S1, primary hits, average change in melting temperature vs controls, triplicates
[13] = Table S2 dose response, compound 10 µM
[14] = Table S2 dose response, compound 30 µM
[15] = Table S2 dose response, compound 90 µM

Sequence of rat VMAT2 (Q01827 whole entry): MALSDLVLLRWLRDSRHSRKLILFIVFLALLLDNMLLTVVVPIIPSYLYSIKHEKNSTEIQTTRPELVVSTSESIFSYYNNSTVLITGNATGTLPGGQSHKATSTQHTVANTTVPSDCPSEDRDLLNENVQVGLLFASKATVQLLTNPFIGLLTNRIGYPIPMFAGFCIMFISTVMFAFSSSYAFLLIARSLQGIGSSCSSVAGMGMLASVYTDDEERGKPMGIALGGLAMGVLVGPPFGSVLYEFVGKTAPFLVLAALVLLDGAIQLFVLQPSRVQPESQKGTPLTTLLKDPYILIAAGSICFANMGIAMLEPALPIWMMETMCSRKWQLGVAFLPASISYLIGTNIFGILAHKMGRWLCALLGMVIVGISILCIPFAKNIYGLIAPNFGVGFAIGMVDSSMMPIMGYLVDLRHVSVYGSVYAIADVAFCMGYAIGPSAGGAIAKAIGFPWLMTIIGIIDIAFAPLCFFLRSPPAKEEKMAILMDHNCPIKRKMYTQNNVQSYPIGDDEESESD
T1 sequence (Q01827 whole entry): as above
T2 sequence (Q01827 whole entry): as above

## CC(C)NCC(O)COc1ccc(CCOCC2CC2)cc1 (centres unmarked) [Betaxolol, Betaxolol hydrochloride]
Rat VMAT2-His; [3]
  ΔTm: 1.98 ± 0.15 oC
Rat VMAT2-His; [4]
  ΔTm at 12 µM: -0.32 °C
Rat VMAT2-His; [5]
  ΔTm at 37 µM: -0.34 °C
Rat VMAT2-His; [6]
  ΔTm at 10 µM: 0.12 °C
Rat VMAT2-His; [7]
  ΔTm at 30 µM: 0.01 °C
Rat VMAT2-His; [8]
  ΔTm at 90 µM: 0.2 °C
Rat VMAT2-His; [9]
  ΔTm at 270 µM: 1.16 °C
Rat VMAT2-His; [10]
  ΔTm at 11 µM: 0.01 °C
Rat VMAT2-His; [11]
  ΔTm at 33 µM: 0.01 °C
Rat VMAT2
  IC50: 6.85 ± 3.62 µM

## CCN(CC)CCCC(C)Nc1ccnc2cc(Cl)ccc12 (centres unmarked) [Chloroquine]
Rat VMAT2
  IC50: > 10 µM
VMAT2 [1]; hek293 cells
  activity: 85.1 ± 11.3%
VMAT2 [2]
  effect on [3H]-DTBZ binding compared with DMSO control (one-way ANOVA, p < 0.001): no statistically significant effect

## CC(C)NCC(O)c1ccc2ccccc2c1 (centres unmarked) [Pronethalol, Pronethalol hydrochloride]
Rat VMAT2-His; 10 µM
  ΔTm: 0,71 oC
Rat VMAT2-His; 11 µM
  ΔTm: 0,70 oC
Rat VMAT2-His; 12 µM
  ΔTm: -0,02 oC
Rat VMAT2-His; 30 µM
  ΔTm: 1,83 oC
Rat VMAT2-His; 33 µM
  ΔTm: 0,48 oC
Rat VMAT2-His; 37 µM
  ΔTm: 0,21 oC
Rat VMAT2-His; 90 µM
  ΔTm: 2,42 oC
Rat VMAT2-His; 270 µM
  ΔTm: 3,75 oC
Rat VMAT2
  IC50: 1.01 ± 0.3 µM

## CCCC(=O)Nc1ccc(OCC(O)CNC(C)C)c(C(C)=O)c1 (centres unmarked) [Acebutolol, Acebutolol hydrochloride]
Rat VMAT2-His; [3]
  ΔTm: 2.14 ± 0.05 oC
Rat VMAT2-His; [4]
  ΔTm at 12 µM: 0.2 °C
Rat VMAT2-His; [5]
  ΔTm at 37 µM: 0.03 °C
Rat VMAT2-His; [6]
  ΔTm at 10 µM: 0.2 °C
Rat VMAT2-His; [7]
  ΔTm at 30 µM: 0.31 °C
Rat VMAT2-His; [8]
  ΔTm at 90 µM: 0.33 °C
Rat VMAT2-His; [9]
  ΔTm at 270 µM: 0.9 °C
Rat VMAT2-His; [10]
  ΔTm at 11 µM: 0.3 °C
Rat VMAT2-His; [11]
  ΔTm at 33 µM: 0.03 °C
Rat VMAT2
  IC50: > 10 µM
Rat VMAT2; read-out: IC50, rat VMAT2, Table S1, substrate uptake assays in transfected Hek293 cells
  IC50: < 10 µM

## C=CCOc1ccccc1OCC(O)CNC(C)C (centres unmarked) [Oxprenolol, Oxprenolol hydrochloride]
Rat VMAT2
  IC50: 6.55 ± 3.49 µM

## CCCNCC(O)COc1ccccc1C(=O)CCc1ccccc1 (centres unmarked) [Propafenone, Propafenone hydrochloride]
Rat VMAT2-His; [3]
  ΔTm: 4.53 ± 0.18 oC
Rat VMAT2-His; [5]
  ΔTm at 37 µM: 0.99 °C
Rat VMAT2-His; [6]
  ΔTm at 10 µM: 1.65 °C
Rat VMAT2-His; [7]
  ΔTm at 30 µM: 2.63 °C
Rat VMAT2-His; [8]
  ΔTm at 90 µM: 3.49 °C
Rat VMAT2-His; [9]
  ΔTm at 270 µM: 4.45 °C
Rat VMAT2-His; [10]
  ΔTm: 1.22 °C
Rat VMAT2-His; [11]
  ΔTm: 1.22 °C
VMAT2 [1]
  activity: 60.7 ± 20.8%
VMAT2 [2]
  effect on [3H]-DTBZ binding compared with DMSO control (one-way ANOVA, p < 0.001): statistically significantly effect

## CC(C)NCC(O)COc1ccc(COCCOC(C)C)cc1 (centres unmarked) [Bisoprolol]
Rat VMAT2-His; [3]
  ΔTm: 1.49 ± 0.05 oC
Rat VMAT2
  IC50: 3.17 ± 0.895 µM

## CC(C)(C)NCC(O)c1cc(Cl)c(N)c(Cl)c1 (centres unmarked) [Clenbuterol]
Rat VMAT2-His; [3]
  ΔTm: 2.19 ± 0.13 oC
Rat VMAT2
  IC50: > 10 µM

## OCc1cc([C@@H](O)CNCCCCCCOCCOCc2c(Cl)cccc2Cl)ccc1O [Vilanterol]
Rat VMAT2
  IC50: 0.047 ± 0.014 µM
Rat VMAT2; Fig. 2b/2c source data, compound 0.0152 μM
  FFN206 uptake relative to no compound (=1), replicate samples: 0.9388 and 0.9839 and 0.9625 and 0.9806
Rat VMAT2; Fig. 2b/2c source data, compound 0.1372 μM
  FFN206 uptake relative to no compound (=1), replicate samples: 0.349 and 0.2794 and 0.2127 and 0.5464
Rat VMAT2; Fig. 2b/2c source data, compound 0.4115 μM
  FFN206 uptake relative to no compound (=1), replicate samples: 0.2586 and 0.1616 and 0.1258 and 0.3046
Rat VMAT2; Fig. 2b/2c source data, compound 1.2346 μM
  FFN206 uptake relative to no compound (=1), replicate samples: 0.2328 and 0.1144 and 0.1141 and 0.2682
Rat VMAT2; Fig. 2b/2c source data, compound 3.7037 μM
  FFN206 uptake relative to no compound (=1), replicate samples: 0.255 and 0.1011 and 0.07806 and 0.2392
Rat VMAT2; Fig. 2b/2c source data, compound 11.1111 μM
  FFN206 uptake relative to no compound (=1), replicate samples: 0.2251 and 0.08176 and 0.1003 and 0.2777
Rat VMAT2; Fig. 2c source data, compound 0.0017 μM
  FFN206 uptake relative to no compound (=1), replicate samples: 1.315 and 1.032 and 1.041 and 1.083

## Cc1cccc(C)c1NC(=O)CN1CCN(CCCC(c2ccc(F)cc2)c2ccc(F)cc2)CC1 [Lidoflazine]
Rat VMAT2-His; [12]
  ΔTm: 1,35 ± 0,18 oC
Rat VMAT2-His; [4]
  ΔTm at 12 µM: 0.23 °C
Rat VMAT2-His; [5]
  ΔTm at 37 µM: 0.05 °C
Rat VMAT2-His; [6]
  ΔTm at 10 µM: 0.23 °C
Rat VMAT2-His; [7]
  ΔTm at 30 µM: 0.21 °C
Rat VMAT2-His; [8]
  ΔTm at 90 µM: 0.33 °C
Rat VMAT2-His; [9]
  ΔTm at 270 µM: 1.14 °C
Rat VMAT2-His; [10]
  ΔTm at 11 µM: 0.12 °C
Rat VMAT2-His; [11]
  ΔTm at 33 µM: 0.16 °C

## Cl.Cl.OCCN1CCN(CC/C=C2/c3ccccc3Sc3ccc(Cl)cc32)CC1 [Zuclopenthixol dihydrochloride]
Rat VMAT2-His; 11 µM
  ΔTm: -0,58 oC
Rat VMAT2-His; 12 µM
  ΔTm: -0,36 oC
Rat VMAT2-His; 33 µM
  ΔTm: 0,03 oC
Rat VMAT2-His; 37 µM
  ΔTm: -0,44 oC
Rat VMAT2-His; 270 µM
  ΔTm: -1,51 oC
Rat VMAT2-His; [13]
  ΔTm: -0,07 oC
Rat VMAT2-His; [14]
  ΔTm: -1,80 oC
Rat VMAT2-His; [15]
  ΔTm: -0,79 oC

## CN[C@@H]1C[C@@H](c2ccc(Cl)c(Cl)c2)c2ccccc21 [Indatraline hydrochloride]
Rat VMAT2-His; [6]
  ΔTm at 10 µM: -0.37 °C
Rat VMAT2-His; [7]
  ΔTm at 30 µM: -0.63 °C
Rat VMAT2-His; [8]
  ΔTm at 90 µM: -1.01 °C
Rat VMAT2-His; read-out: ΔTm
  ΔTm at 11 µM: -0.28 °C
  ΔTm at 12 µM: 0.24 °C
  ΔTm at 33 µM: -0.41 °C
  ΔTm at 37 µM: 0.04 °C
  ΔTm at 270 µM: -2.11 °C

## C=CCc1ccccc1OCC(O)CNC(C)C (centres unmarked) [Alprenolol hydrochloride]
Rat VMAT2-His; [12]
  ΔTm: 2,30 ± 0,05 oC
Rat VMAT2-His; [4]
  ΔTm at 12 µM: -0.11 °C
Rat VMAT2-His; [5]
  ΔTm at 37 µM: -0.04 °C
Rat VMAT2-His; [6]
  ΔTm at 10 µM: 0.14 °C
Rat VMAT2-His; [7]
  ΔTm at 30 µM: 0.73 °C
Rat VMAT2-His; [8]
  ΔTm at 90 µM: 0.4 °C
Rat VMAT2-His; [9]
  ΔTm at 270 µM: 1.21 °C
Rat VMAT2-His; [10]
  ΔTm at 11 µM: 0.04 °C
Rat VMAT2-His; [11]
  ΔTm at 33 µM: 0.02 °C

## CC(C(O)c1ccc(O)cc1)N1CCC(Cc2ccccc2)CC1.CC(C(O)c1ccc(O)cc1)N1CCC(Cc2ccccc2)CC1.O=C(O)C(O)C(O)C(=O)O (centres unmarked) [Ifenprodil tartrate]
Rat VMAT2-His; 11 µM
  ΔTm: -0,20 oC
Rat VMAT2-His; 12 µM
  ΔTm: 0,30 oC
Rat VMAT2-His; 33 µM
  ΔTm: 0,14 oC
Rat VMAT2-His; 37 µM
  ΔTm: 0,32 oC
Rat VMAT2-His; 270 µM
  ΔTm: 0,41 oC
Rat VMAT2-His; [12]
  ΔTm: 1,23 ± 0,40 oC
Rat VMAT2-His; [13]
  ΔTm: 0,09 oC
Rat VMAT2-His; [14]
  ΔTm: 0,06 oC
Rat VMAT2-His; [15]
  ΔTm: -0,04 oC

## Clc1ccc(Cn2c(CN3CCCC3)nc3ccccc32)cc1 [Clemizole hydrochloride]
Rat VMAT2-His; [12]
  ΔTm: -1,46 ± 0,10 oC
Rat VMAT2-His; [6]
  ΔTm at 10 µM: 0.33 °C
Rat VMAT2-His; [7]
  ΔTm at 30 µM: 0.57 °C
Rat VMAT2-His; [8]
  ΔTm at 90 µM: 0.31 °C
Rat VMAT2-His; [9]
  ΔTm at 270 µM: -0.69 °C
